The target of test [1] is T1, human recombinant dopamine D4.2 receptor (Homo sapiens, UniProt P21917, DEL265-296).
T1 construct: expressed in transfected cells
T1 sequence (P21917 with tags, fused parts or gaps DEL265-296): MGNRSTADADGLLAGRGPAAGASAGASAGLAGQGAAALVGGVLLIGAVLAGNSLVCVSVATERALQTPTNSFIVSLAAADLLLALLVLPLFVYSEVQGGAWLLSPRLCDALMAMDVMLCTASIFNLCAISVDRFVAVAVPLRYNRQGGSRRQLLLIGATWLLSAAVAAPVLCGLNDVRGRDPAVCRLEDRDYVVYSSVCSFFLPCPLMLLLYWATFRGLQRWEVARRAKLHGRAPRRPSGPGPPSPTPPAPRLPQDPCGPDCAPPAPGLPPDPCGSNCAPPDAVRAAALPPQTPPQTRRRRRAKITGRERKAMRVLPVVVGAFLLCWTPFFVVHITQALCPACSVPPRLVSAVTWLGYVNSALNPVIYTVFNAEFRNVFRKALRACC
The test can be described thus: Receptor binding assay, D4.2 ([^3 H]spiperone). The source says:
(§1) A cell line expressing human dopamine D2 (Long form) receptors was purchased from Oregon Health Sciences University, Portland, Oreg. The D2 receptor cDNA was subcloned into an expression vector, pRc/CMV. The plasmids were transfected by electroporation into CHO K1 cells. A single stable transfectant, resistant to the antibiotic G418, was isolated and selected for use in the binding studies. For D4 binding, CHO K1 cells stably transfected to express the human recombinant dopamine D4.2 receptor subtype, as described by Shih, et al., "The expression and functional characterization of human dopamine D4.2 receptor in CHO K1 cells," Soc. Neurosci., 1995;21 (Part 1):621 were used.
(§2) CHO K1 cells expressing either human D2 and D4.2 receptors were grown in 162 cm^2 culture flasks in F12 medium (Gibco Laboratories, Grand Island, N.Y.) supplemented with 10% fetal bovine serum (FBS, Hyclone, Logan, Utah) in an atmosphere of 5% CO2 /95% air at 37 EC. Cells were grown until confluent, after which growth medium was removed and replaced with 0.02% ethylene diamine tetracetate (EDTA) in a phosphate-buffered saline solution (Sigma Chemical Co., St. Louis, Mo.) and scraped from the flasks. The cells were centrifuged at about 1000×g for 10 minutes at 4° C. and then resuspended in TEM buffer (25 mM Tris-HCL, pH 7.4, 5 mM EDTA, and 6 mM MgCl2) for D2 or the D4.2 buffer (50 mM Tris-HCl, pH 7.4, 5 mM EDTA, 1.5 mM CaCl2, 5 mM KCl, and 120 mM NaCl) and homogenized. The membranes were pelleted by centrifugation at 20000×g at 4° C. for 20 minutes. Then the pellets were resuspended in appropriate buffer at 1 mL/flask and stored at -70° C. until used in the receptor binding assay.
(§3) After 60 minutes incubation at 25° C., the incubations were terminated by rapid filtration through Whatmann GF/B glass fibre filters (soaked for 1 hour in 0.5% polyethylenimine) on a cell harvester, with three washes of 1 mL ice-cold buffer. Individual filter disks containing the bound ligand were placed in counting vials with 4 mL of scintillation fluid (Ready Gel, Beckman Instrument, Inc., Fullerton, Calif.) and then counted in a Beckman LS-6800 liquid scintillation counter at an efficiency of 45%. Nonspecific binding was defined in presence of 1 mM of haloperidol.
(§4) Saturation and competition binding data were analyzed using an iterative nonlinear least square curve-fitting Ligand program. […] Experimental compounds were made up as stock solutions in dimethyl sulfoxide (DMSO). […] Each observation was carried out in triplicate. To allow these calculations, Kd values were measured for the interaction of various ligands with the receptor. […]

Test [2] concerns the target human dopamine D2 (Long form) receptors (Homo sapiens, UniProt P14416). The test can be described thus: biochemical. The format is binding.
Description: as §1, §2, §3, §4

Where a name gives a salt, the structure may show the parent alone.

Sequence of human dopamine D2 (Long form) receptors (P14416 whole entry): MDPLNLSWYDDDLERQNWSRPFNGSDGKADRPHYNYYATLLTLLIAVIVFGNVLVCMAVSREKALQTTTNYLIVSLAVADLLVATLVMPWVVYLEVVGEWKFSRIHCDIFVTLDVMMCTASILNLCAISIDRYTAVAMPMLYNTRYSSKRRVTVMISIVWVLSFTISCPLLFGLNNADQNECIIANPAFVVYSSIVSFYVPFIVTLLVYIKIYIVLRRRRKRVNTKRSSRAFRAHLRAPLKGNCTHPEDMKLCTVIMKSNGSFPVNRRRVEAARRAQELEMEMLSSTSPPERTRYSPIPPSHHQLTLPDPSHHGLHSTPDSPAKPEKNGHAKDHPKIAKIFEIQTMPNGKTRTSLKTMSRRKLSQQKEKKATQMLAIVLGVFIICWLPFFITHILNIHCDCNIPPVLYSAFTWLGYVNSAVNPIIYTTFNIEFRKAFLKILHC

For the compound `O=c1ccc2ccc(CNCCCc3ccccc3)cc2o1` [Example 4q, 7-[(3-Phenyl-propylamino)-methyl]-chromen-2-one], in test [1], the Ki – broadly, a dissociation constant, usually derived from enzyme kinetics or from competition with a known ligand – turned out to be 60 nM.
Still for that read-out and setting: the same measure for `O=c1ccc2ccc(CNCCOc3ccccc3)cc2o1` [Example 4m, 7-[(2-Phenoxy-ethylamino)-methyl]-chromen-2-one]: 43 nM.
In the case of `Cc1ccc(OCCNCc2ccc3ccc(=O)oc3c2)cc1` [Example 4n, 7-[(2-p-Tolyloxy-ethylamino)-methyl]-chromen-2-one], the Ki in test [2] is 195 nM; in test [1] it was 3.9 nM.
Take `O=c1ccc2ccc(CNCCCOc3ccc(Cl)cc3)cc2o1` [Example 4r, 7-{[3-(4-Chloro-phenoxy)-propylamino]-methyl}-chromen-2-one]: the Ki in test [1] was found to be 92 nM.
Same read-out and setting: the value for `O=c1ccc2cc(CNCCNc3ccccc3)ccc2o1` [Example 4g, 6-[(2-Phenylamino-ethylamino)-methyl]-chromen-2-one] was 311 nM.
For the compound `c1ccc(OCCCNCCOc2ccc3ncccc3c2)cc1` [Example 2a, (3-Phenoxy-propyl)-[2-quinolin-6-yloxy)-ethyl]-amine hydrochloride], the Ki was 578 nM in test [2] and 12.8 nM in test [1].
In the same order, the values of `O=c1ccc2ccc(CNCCOc3ccc(Cl)cc3)cc2o1` [Example 4o, 7-{[2-(4-Chloro-phenoxy)-ethylamino]-methyl}-chromen-2-one] are 286 nM and 9.5 nM.
As to `O=c1ccc2ccc(CNCCNc3ccc(CO)c(Cl)c3)cc2o1` [Example 4a, 7-{[2-(3-Chloro-4-hydroxymethyl-phenylamino)-ethylamino]-methyl}-chromen-2-one], in test [1], the Ki was found to be 95 nM.
Consider `c1ccc(OCCCNCCOc2ccc3oc4ccccc4c3c2)cc1` [Example 2d, [2-(Dibenzofuran-2-yloxy)-ethyl]-(3-phenoxypropyl)-amine hydrochloride], for which the Ki in test [1] was determined as 78.7 nM.
As to `O=c1ccc2ccc(OCCNCCCOc3ccccc3)cc2o1` [Example 2c, 7-[2-(3-Phenoxy-propylamino)-ethoxy]-chromen-2-one hydrochloride], the Ki in test [2] was 249 nM; in test [1], 1.6 nM.
In the same order, the values of `O=c1ccc2cc(CNCCCOc3ccccc3)ccc2o1` [Example 4t, 6-[(3-Phenoxy-propylamino)-methyl]-chromen-2-one] are 1070 nM and 20 nM.
With `O=c1ccc2ccc(CNCCCNc3ccccc3)cc2o1` [Example 4i, 7-[(3-Phenylamino-propylamino)-methyl]-chromen-2-one], in test [1], the Ki is 31 nM.
Still for that read-out and setting: the same measure for `O=c1ccc2ccc(CNCCSc3ccccc3)cc2o1` [Example 4p, 7-[(2-Phenylsulfanyl-ethylamino)-methyl]-chromen-2-one hydrochloride]: 394 nM.
Take `Cc1ccc(OCCNCc2ccc3oc(=O)ccc3c2)cc1` [Example 4k, 6-[(2-p-Tolyloxy-ethylamino)-methyl]-chromen-2-one]: the inhibition constant Ki came out at 5880 nM in test [2] and 23.8 nM in test [1].
In the same order, the values of `c1ccc(OCCCNCCOc2ccc3occc3c2)cc1` [Example 3b, [2-(Benzofuran-5-yloxy)-ethyl]-(3-phenoxy-propyl)-amine hydrochloride] are 502 nM and 1.2 nM.
Turning to `Cc1ccc(OCCCNCc2ccc3ccc(=O)oc3c2)cc1` [Example 4s, 7-[(3-p-Tolyloxy-propylamino)-methyl]-chromen-2-one], in test [1], the inhibitory constant (Ki) came to 234 nM.
As to `O=c1ccc2ccc(CNCCNc3cccc(Cl)c3)cc2o1` [Example 4d, 7-{[2-(3-Chloro-phenylamino)-ethylamino]-methyl}-chromen-2-one dihydrochloride], the Ki in test [1] was determined as 42 nM.
Still for that read-out and setting: the value for `Cc1cc(=O)oc2ccc(OCCNCCCOc3ccccc3)cc12` [Example 3a, 4-Methyl-6-[2-(3-phenoxy-propylamino)-ethoxy]-chromen-2-one hydrochloride] was 70.2 nM.
Turning to `O=c1ccc2cc(CNCCOc3ccc(Cl)cc3)ccc2o1` [Example 4l, 6-{[2-(4-Chloro-phenoxy)-ethylamino]-methyl}-chromen-2-one], the inhibition constant (Ki) in test [2] came out at 4870 nM; in test [1] it was 13.5 nM.
For the compound `O=c1ccc2cc(CNCCOc3ccccc3)ccc2o1` [Example 4j, 6-[(2-Phenoxy-ethylamino)-methyl]-chromen-2-one hydrochloride], the Ki in test [1] was found to be 64 nM.
Turning to `Cc1cc(=O)oc2cc(OCCNCCCOc3ccccc3)ccc12` [Example 3, 4-Methyl-7-[2-(3-phenoxy-propylamino)-ethoxy]-chromen-2-one Hydrochloride], the inhibition constant Ki in test [2] came to 231 nM; in test [1], 1.9 nM.
